Here are results for 2 molecules from US20210128414A1, “SELF-ASSEMBLED NANOSTRUCTURES AND COMPOSITE MATERIALS USABLE IN DENTAL APPLICATIONS CONTAINING SAME” (Ramot at Tel-Aviv University Ltd., priority 2018, published 2021).

A short description of data set [1]: Occlusal fissure stability and optical property analyses. The conditions noted are these: 2% w/w composite. The format is physicochemical. The method, then:
Occlusal Fissure Stability and Optical Property Analyses were also performed as follows.
Occlusal fissures were made via a diamond bur and then restored utilizing either the 2% nanostructure-containing restorative composites or a control (0%) restorative. The samples were contained for 30 days at 37° C. in sterile PBS. A Spectroshade Micro-MHT dental spectrophotometer normalized to the Vita classical color guide was then utilized to evaluate the color of the tested samples.

Data set [2] can be described thus: Shear-Punch Strength Test of nanostructure-incorporated resin composite restorative. The format is physicochemical. The method, then:
The effect of the incorporation of peptide nanostructures in the polymerized dental resin composite restorative on the structural integrity of the resin composite restorative was tested. A Shear-Punch Test was carried out on samples incorporating varying weight ratios of Fmoc-Pentafluoro-Phe.
A Shear-Punch Strength Test was performed according to Mount et al., Aust. Dent. 1996; J 41: 116-23. Shear Punch Strength Test. Briefly, a composition comprising the nanostructures dispersed in a pre-polymerized resin composite restorative was placed in 0.8 mm thick wash holders and light-cured to form flat parallel surfaces evenly supported and restrained by the holder. The samples were then placed in an Instron device (model 4502) for punching under a crosshead speed of 0.5 mm per minute. The maximum force applied (Fmax) was calculated as the mean of 10 different samples for each w/w % concentration of the tested nanostructure. Statistical analysis was carried out via one-way analysis of variance and Dunnett's post hoc test.

The subject of data set [3] is S. mutans. Kind of data set: Direct-contact kinetic analysis (direct-contact test) of polymerized composite materials. The format is cell-based, Streptococcus mutans. The conditions noted are these: 1 hour direct contact. How it is done: In order to evaluate the antimicrobial capabilities of the resin composite restoratives while simulating its clinical use, a direct-contact test (DCT) was carried out. This spectroscopic microplate reader based test, designed for compounds that are non-diffusible and non-soluble in water, allows measuring the effect of direct contact between the evaluated material and bacterial viability and growth. Four different W/W % samples of the resin composite material were evaluated at 0.25, 0.5, 1 and 2% Fmoc-F5-Phe nano-structure concentrations, and Filtek™ Ultimate Flow with no Fmoc-F5-Phe nano-structures additives, treated in the same manner, served as a control. Streptococcus mutans (S. mutans) was chosen for this evaluation as this strain is commonly found in the human oral cavity and is a significant caries-causing pathogen. Following direct contact of S. mutans bacteria with the Fmoc-F5-Phe incorporated materials the subsequent proliferation of the bacteria, was evaluated by optical density measurements over eighteen hours.
This analysis was carried out as described in Weiss et al. Endod. Dent. Traumatol. 12, 179-84 (1996), with slight modification.
S. mutans bacteria were grown in anaerobic conditions in BHI media for 48 hours and then diluted to an OD600 of 0.6 in BHI. […] were deposited onto inserts (concaved plastic surfaces designed to be suspended in the wells of 96 well-plates) coated on one side with each of the nano-assembly incorporated resin composite restoratives (four different W/W % samples of the resin composite material were evaluated at 0.25, 0.5, 1 and 2% concentrations of each nanostructure) and then incubated for one hour at 37° C. Following incubation […] was added to each well so that the inserts were submerged in the BHI and the plates were sealed to ensure anaerobic conditions. Kinetic growth inhibition was determined by optical density measurements (650 nm) using a Biotek Synergy HT microplate reader.

Data set [4] has as its system HeLa cells. As to the kind of experiment: MTT cell viability analysis of composite restoratives. The format is cell-based. The conditions noted are these: nanostructure-incorporated composite versus composite alone; 18 hours, 37° C. How it is done: (§1) The effect of the incorporation of Fmoc-F5-Phe on the cytotoxicity of the dental composite restoratives was tested. This was carried out by evaluating the effect of each amalgamated composite restorative (containing self-assembled nanostructures as described herein) on the viability of two cell lines; HeLa and 3T3 fibroblasts, using MTT analysis, as follows.
(§2) The 3T3 fibroblast cells and HeLa cells grown in Dulbecco's Modified Eagle's Medium (DMEM) supplemented with 10% fetal calf serum (FBS) (Biological Industries, Israel) were sub-cultured (2×10^5 cells/mL) in 96-well tissue microplates (100 μl per well) and were allowed to adhere overnight at 37° C. Inserts (in quadruplet) coated on one side with each of the nano-assembly incorporated resin composite restoratives were placed into the wells containing the adhered cells. After incubation for 18 hours at 37° C., cell viability was evaluated using the 3-(4,5-dimethylthiazolyl-2)-2,5-diphenyltetrazolium bromide (MTT) assay. Briefly, 10 μL of 5 mg/mL MTT dissolved in PBS was added to each well. After 4 hours incubation at 37° C., 100 μl of the extraction buffer [20% SDS dissolved in a solution of 50% dimethylformamide and 50% DDW (pH 4.7)] were added to each well, and the plates were incubated again at 37° C. for 30 minutes. Finally, color intensity was measured using an ELISA reader at 570 nm. […]

Data set [5] has as its system 3T3 fibroblasts. The description is as above. The format is cell-based. The conditions noted are these: nanostructure-incorporated composite versus composite alone; 18 hours, 37° C. The method, then: as §1, §2
For data set [6], the system named is S. mutans. As to the kind of experiment: Minimum inhibitory concentration and kinetic growth inhibition analysis of nanostructures. The format is cell-based, Streptococcus mutans. The method, then: The antibacterial capabilities of the obtained nanostructures were evaluated against S. mutans via a minimum inhibitory concentration (MIC) analysis and by kinetic growth inhibition analysis, as follows. S. mutans bacteria were grown under anaerobic conditions in brain heart infusion (BHI) medium (BD Difco) for 48 hours and then diluted to OD600 of 0.01 or 0.25 in BHI. Nanostructures samples, at an initial concentration of 8 mM, were added to the bacterial samples in 96-well plates in serial 2-fold dilutions, which were sealed to ensure anaerobic conditions. Kinetic growth inhibition was determined by optical density measurements (650 nm) using a Biotek Synergy HT microplate reader. The minimum inhibitory concentration (MIC) was determined using the microdilution assay, and evaluation of the reduction in colony-forming units was obtained by plating and counting bacterial samples before and after overnight treatment. […] The ability of the nanostructures to inhibit bacterial growth at a higher bacterial load, similar to that of an active infection was also tested. S. mutans cultures were grown until mid-log phase and were then treated with 2 mM samples of the nanostructures.

Data set [7] is described as follows: HPLC-based nanostructures release evaluation in sterile saliva. The format is physicochemical. The conditions noted are these: 37° C., 2% w/w composite. How it is done: Restorative composites incorporating 4 mg of the Fmoc-F5-Phe nanostructures to a final w/w % of 2% were examined following 24, 48 and 72 hours of incubation at 37° C. in sterile saliva.
Data set [8] concerns S. mutans. Kind of data set: Live/Dead viability analysis after contact with composite restoratives. The format is cell-based, Streptococcus mutans. How it is done: To directly assess bacterial viability, treated and control bacteria were subjected to Live/Dead viability analysis, using the Live/Dead backlight bacterial viability kit and accompanying instructions, as follows. S. mutans bacteria were grown in anaerobic conditions in BHI media for 48 hours and then diluted to an OD600 of 0.6 in BHI. 100 μl of these samples were deposited onto inserts coated on one side with each of the polymeric matrices and then incubated for one hour at 37 degrees. Following incubation […] was added to each well and the plates were sealed to ensure anaerobic conditions. At each time point (initial incubation, 1 hour and 24 hours) samples were taken and washed with saline, incubated for 15 minutes in a solution containing Propidium iodide and Syto9 (L13152 LIVE/DEAD® BacLight™ Bacterial Viability Kit, Molecular Probes, OR, USA) and washed with saline again. Fluorescence emission was detected using an ECLIPSE E600 (Nikon, Japan).

The test system of data set [9] is S. mutans. As to the kind of experiment: Live/Dead (Syto9/Propidium iodide) bacterial viability analysis of nanostructure-treated bacteria. The format is cell-based, Streptococcus mutans. The conditions noted are these: after kinetic analysis with nanostructures. The method, then:
To directly assess bacterial viability, the bacteria were subjected to Live/Dead viability analysis containing Syto9 (indicating live bacteria) and Propidium iodide (PI) (indicating dead bacteria). Following kinetic analysis, the samples were washed thrice with saline, incubated for 15 minutes in a solution containing Syto9 and Propidium iodide (L13152 LIVE/DEAD BacLight Bacterial Viability Kit, Molecular Probes, OR), and washed with saline again. Fluorescence emission was detected using an ECLIPSE E600 fluorescent microscope (Nikon, Japan).

For data set [10], the system named is S. mutans. Kind of data set: Bacterial morphology by high-resolution scanning electron microscopy. The format is cell-based, Streptococcus mutans. The conditions noted are these: overnight treatment with nanostructures. How it is done:
The effect of Fmoc-F5-Phe nanostructures on bacterial morphology was studied using High-Resolution Scanning Electron Microscopy as follows.
Bacterial samples were centrifuged at 5000 rpm for 5 minutes, washed thrice in PBS, and fixed in 2.5% glutaraldehyde in PBS for 1 hour. The samples were then washed thrice in PBS and fixed in 1% OsO4 in PBS for 1 hour, followed by a dehydration series with ethanol. The samples were then left in absolute ethanol for 30 minutes and placed onto glass coverslips, followed by critical point drying and coating with gold. Micrographs were recorded using a JEOL JSM-6700F FE-SEM scanning electron microscope operating at 10 kV. The obtained micrographs shown in FIG. 1I are representative of three independent experiments.

Data set [11] can be described thus: Diametral Tensile Strength (DTS) test. The format is physicochemical. The conditions noted are these: 2% w/w nanostructures in Filtek composite; p>0.155. How it is done: Diametral Tensile Strength (DTS) Test was further performed to verify the difference in tensile properties (tensile strength and stiffness of the specimens characterizing the elasticity of the materials) of the 2% amalgamated material compared to the control (0%), as follows.
Disks (6 mm in diameter, 3 mm in height) of either control resin composite restorative or 2% nanoassembly-incorporated resin composite restorative were prepared in a Teflon mold similar to the specimens used for the punch shear strength. Specimens were loaded up to failure. The linear slope during loading was calculated, indicating the stiffness of the specimen, and the DTS was calculated by: […]
where P is the load at failure (N), D is the specimen diameter (mm), and t is the specimen height (mm).
The specimens were loaded via the above-mentioned loading machine using the same crosshead speed. Statistical analysis was carried out via T-test.

Data set [12] deals with S. mutans. As to the kind of experiment: SYTOX Blue membrane permeation assay. The conditions noted are these: nanostructures, 3 hours incubation at 37° C. The format is cell-based, Streptococcus mutans. The method, then:
The effect of Fmoc-F5-Phe nanostructures on bacterial membrane permeation was also supported by a SYTOX Blue membrane permeation assay. SYTOX Blue is a cationic dye that cannot enter an intact cell unless its membrane is disrupted by external compounds. Inside the cell, SYTOX Blue stain binds to intracellular nucleic acids and fluoresces bright blue when excited with 405 nm violet laser light.
S. mutans bacteria were grown under anaerobic conditions in BHI medium (BD Difco) for 48 hours and diluted to 0.1 OD600. Fmoc-F5-Phe or ultrapure water (100 μL) as control was added to 300 μL of bacteria and incubated for 3 hours in 37° C. The bacterial cells were centrifuged for 5 minutes at 3700 rpm and incubated with 1 μM SYTOX blue (Thermo Fisher Scientific) for 30 minutes at 37° C. The samples were washed three times in PBS and examined by confocal microscopy LSM 510, excited at 405 nm (Zeiss, Germany).

The mark [13] stands for this setting: 0.25-1% w/w nanostructures in Filtek composite.
[14] abbreviates: 2% w/w nanostructures in Filtek composite.

The structures appear in SMILES notation.

As for `O=C(NC(Cc1c(F)c(F)c(F)c(F)c1F)C(=O)O)OCC1c2ccccc2-c2ccccc21` (stereo not drawn) [Fmoc-F5-Phe, Fmoc-Pentafluorophenylalanline], the “stability of occlusal fissure restorations” value in data set [1] (30-day incubation at 37° C. in sterile PBS) is “remained intact and stable”. In addition, the “color (Vita shade) versus control” value in [1] (Spectroshade Micro-MHT spectrophotometer) was “same Vita shade”. In [2] (0.25%, 0.5% and 1% w/w nanostructures in Filtek composite, p≥0.144), the “Fmax versus control (0%)” value is given as “no statistically significant difference”. The “Fmax, inferior to control (0%) by” value in [2] (2% w/w nanostructures in Filtek composite, p=0.011) is on record as 9%. For the same molecule, the “effect on stiffness of the specimen” value in data set [2] (nanostructures in Filtek composite, data not shown) is listed as “no substantial effect”. For the same molecule, the bacterial growth inhibition result in data set [3] (setting [13]) is “partially inhibit bacterial growth in a dose dependent manner”; in data set [3] (setting [14]), “over 95%”. The “effect of incorporation on cell viability (MTT)” value in data set [4] and in data set [5] was “did not change the effect” in each case. Further, in data set [6] (2 mM nanostructures added to mid-log phase cultures), the “bacterial growth inhibition at higher bacterial load” value is “inhibited bacterial proliferation”. For the same molecule, in data set [6] (nanostructures at 2 mM, overnight, early log phase cultures), the “reduction in colony-forming units” value is recorded as 7.2 log(10) CFU/mL. For the same molecule, the “bacterial growth inhibition at lower concentrations” value in [6] (nanostructures below 2 mM, overnight) is on record as “partially inhibiting growth in a dose-dependent manner”. Also, in data set [6] (self-assembled nanostructures, cultures started at early log phase, overnight), the “concentration at which overnight incubation completely inhibited bacterial growth (MIC analysis)” value is 2000 µM. Further, the “amount of nanostructures released” value in [7] (24 hours, 4 mg nanostructures) is on record as 0.9520 micrograms; in [7] (48 hours) it was 0.1805 micrograms; in [7] (72 hours) it was 0.1088 micrograms. In addition, the “released fraction of initial amount of incorporated nanostructures” value in data set [7] (24 hours) is recorded as “less than 0.024%”. Further, the “released fraction of incorporated nanostructures” value in [7] (48 hours) is given as “below 0.0046%”. For the same molecule, the “bacterial viability (Live/Dead)” value in [8] (setting [14]) is “bacterial cell death”; in data set [8] (composite with nanostructures, one hour of treatment, versus Filtek alone) it was “large scale bacterial death”; in data set [9] it was “significant bacterial cell death”. The “bacterial viability (Live/Dead), persistence of effect” value in data set [8] (composite with nanostructures, 24 hours) was “persisted”. Further, the “effect on bacterial morphology” value in [10] was “membrane fusing, clumping, and disintegration were abundant”. The “diametral tensile strength and stiffness versus control (0%)” value in [11] was “No statistically significant differences”. In data set [12], the “bacteria stained with SYTOX Blue (membrane permeation)” value is listed as “about 90%”.
On to `O=C(N[C@@H](Cc1ccccc1)C(=O)O)OCC1c2ccccc2-c2ccccc21` [Fmoc-Phe, Fmoc-phenylalanine], for which the bacterial growth inhibition entry was “inhibited growth in a dose-dependent manner” in data set [3] (setting [13]) and 60% in [3] (setting [14]).
